Experimental data published in PMC4168900, “Expeditive synthesis of trithiotriazine-cored glycoclusters and inhibition of Pseudomonas aeruginosa biofilm formation” (Beilstein Journal of Organic Chemistry, 2014).

Tests used:
[1] = biological target: lecB (Pseudomonas aeruginosa, UniProt Q9HYN5); assay: Isothermal titration calorimetry (ITC), binding to lecB
Experimental: (§1) The affinities of the designed glycoconjugates with lecA and lecB were determined by isothermal titration calorimetry (ITC) by addition of the ligands to a solution of lectin (Figure 3). Dissociation constants (Kd) and thermodynamic parameters (ΔG, ΔH, −TΔS) are listed in Table 1, together with the experimental binding stoichiometry (n), defined as the number of glycocluster ligands per monomer of lectin.
The observed β/N values in Table 1, which reflect the relative affinity per unit sugar, are 29 for the trivalent cluster and in the range of 12 for the bivalent clusters. These values most likely reflect sub-site binding by the heterocyclic rings. […] These clusters thus represent a readily accessible, highly soluble, and convenient tool for the investigation of the role of lecA and lecB in the formation of biofilms by Pseudomonas aeruginosa. […]
(§2) Reactions under microwave activation were performed using a Biotage Initiator system. NMR spectra were recorded at 293 K, unless otherwise stated, using a 300 or 400 or 500 MHz spectrometer.
Shifts are referenced relative to deuterated solvent residual peaks. […] High-resolution (HR-ESI- QToF) mass spectra were recorded using a Bruker MicroToF-Q II XL spectrometer. […] IR spectra were recorded on a Shimadzu FTIR-8400S IR spectrophotometer and n are expressed in cm-1. […]

[2] = tested on: PAO1 biofilm; assay: P. aeruginosa adherence / biofilm formation assay, crystal violet staining; assay type: cell-based, Pseudomonas aeruginosa; details: 5 mM cluster, 24 h, 30 °C, LB medium, compared to glucose-bearing cluster 13 or absence of cluster
Experimental: The P. aeruginosa adherence assay was performed in 24 well microplates. Biofilms were obtained after 24 h of incubation at 30 °C in LB medium alone or in the presence or galactose, fucose, or glucose (control)-substituted trivalent clusters and stained with crystal violet (CV).
All reagents were commercial and used without further purification. Solvents were distilled from CaH2.
as §2
Shifts are referenced relative to deuterated solvent residual peaks. Complete signal assignments from 1D and 2D NMR spectroscopy were based on COSY, HSQC, and HMBC correlations. High-resolution (HR-ESI- QToF) mass spectra were recorded using a Bruker MicroToF-Q II XL spectrometer. Thin-layer chromatography (TLC) was carried out on aluminum sheets coated with silica gel 60 F254 (Merck). […] IR spectra were recorded on a Shimadzu FTIR-8400S IR spectrophotometer and n are expressed in cm-1. NMR spectra were recorded on a Bruker DRX (1H at 300 or 400 MHz, 13C at 75 or 100 MHz) or on a Bruker AV500 spectrometer (1H at 500 MHz, 13C at 125 MHz). HRMS were recorded in electrospray ionization mode on a micro q-tof Micromass in strument (3000 V) with an internal lock mass (H3PO4) and an external lock mass (Leu- […]

[3] = tested on: PAO1; assay: PAO1 growth inhibition control test; assay type: cell-based, Pseudomonas aeruginosa; details: PAO1 in the presence of clusters
Experimental: To check that differences observed were not due to bacterial growth defect in the presence of clusters, a growth inhibition control experiment was performed (Figure 4C). […] A) Biofilm growth assay in LB medium. B) Statistical analysis (above, n = 5, duplicate UV measurements) of ethanol-solubilized biofilm recovered from each well (below). C) PAO1 growth inhibition control test.

[4] = biological target: T1, lecA (Pseudomonas aeruginosa, UniProt Q05097); assay: Isothermal titration calorimetry (ITC), binding to lecA; details: for ΔG / ΔH / β/N (improvement in affinity relative to the methyl glycoside, divided by the valency) / −TΔS / n (stoichiometry): T = 298 K; for n (stoichiometry): glycocluster ligands per monomer of lectin
Experimental: as §1, with “lectin. […]” for “lectin.”
Isothermal titration microcalorimetry (ITC):
Recombinant lyophilized lecA and lecB were dissolved in buffer (100 mM Tris-HCl pH 7.5, 6 µM CaCl2,) and degassed. The same procedure was applied for lecB with a different buffer (20mM Tris-HCl pH 7.54 100mM NaCl 100µM CaCl2). Protein concentration varied between 50 and 120 µM depending on the ligand affinity. Carbohydrate ligands were dissolved directly into the same buffer, degassed, and placed in the injection syringe. ITC was performed using a VP-ITC MicroCalorimeter from MicroCal Incorporated. lecA was placed into the 1.4478 mL sample cell, at 25°C. Titration was performed with 10 µL injections of carbohydrate ligands every 300 s. Data were fitted using MicroCal Origin 7 software according to standard procedures. Fitted data yielded the stoichiometry (n), the association constant (Ka), and the enthalpy of binding (∆H). Other thermodynamic parameters (i.e., changes in free energy ∆G and entropy ∆S) were calculated from the equation ∆G = ∆H - T∆S = -[…] in which T is the absolute […]
temperature and R = 8.314 Jmol-1K-1. […]

[5] = biological target: T1, lecA; assay: Dynamic light scattering (DLS), aggregation of lecA
Experimental: Dynamic light scattering experiments (DLS) were performed on the trivalent and divalent galactose-substituted clusters 1, 16 and 17, as well as the glucose-substituted cluster 13 as a negative control. […] The inability of these systems to efficiently aggregate lectins is in stark contrast to the hexavalent benzene cluster, which may be attributed to differences in rigidity and hydrophobicity between the two systems. It thus appears that the direct diaryl sulfide bridge presents a more optimal degree of semi-rigidity.
Figure 2 Dynamic light scattering experiments of bis-D-galactosyl proparyl cluster 16 with lecA. Distribution by mass for lecA + buffer (left) and lecA + 16 (200 μM, right) at 3 minute intervals. Additional experiments can be found in Supporting Information File 1.

T1 sequence (Q05097 2-122): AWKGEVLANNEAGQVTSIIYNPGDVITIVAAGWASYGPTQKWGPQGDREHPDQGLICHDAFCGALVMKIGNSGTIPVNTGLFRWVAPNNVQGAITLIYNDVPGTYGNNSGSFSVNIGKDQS
Sequence of lecB (Q9HYN5 entry or part of it): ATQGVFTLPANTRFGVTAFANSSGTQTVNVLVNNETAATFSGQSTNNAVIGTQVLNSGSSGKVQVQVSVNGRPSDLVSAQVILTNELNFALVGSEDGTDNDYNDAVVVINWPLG

Compound | Kd [1] [µM] | biofilm formation [2] | bacterial growth defect [3] | Kd [4] [µM] | ΔG ([4]; ITC) [kcal/mol] | ΔH ([4]; ITC) [kcal/mol] | β/N (improvement in affinity relative to the methyl glycoside, divided by the valency) ([4]; ITC) | −TΔS ([4]; ITC) [kcal/mol] | n (stoichiometry) ([4]; ITC) | aggregation of lecA [5] | affinity for the lectin (in words) ([4]; ITC, negative control)
C[C@@H]1O[C@H](n2cc(CSc3nc(SCc4cn([C@H]5O[C@@H](C)[C@@H](O)[C@@H](O)[C@@H]5O)nn4)nc(SCc4cn([C@H]5O[C@@H](C)[C@@H](O)[C@@H](O)[C@@H]5O)nn4)n3)nn2)[C@@H](O)[C@H](O)[C@@H]1O [compound 14, 2,4,6-tris(1-(β-L-fucopyranosyl)triazol-4-ylmethylthio)-1,3,5-triazine] | 50 | statistically significant reduction in biofilm formation | No growth defect was observed | – | – | – | – | – | – | – | –
OC[C@H]1O[C@@H](n2cc(CSc3nc(SCc4cn([C@@H]5O[C@H](CO)[C@H](O)[C@H](O)[C@H]5O)nn4)nc(SCc4cn([C@@H]5O[C@H](CO)[C@H](O)[C@H](O)[C@H]5O)nn4)n3)nn2)[C@H](O)[C@@H](O)[C@H]1O [compound 1, 2,4,6-tris(1-(β-D-galactopyranosyl)triazol-4-ylmethylthio)-1,3,5-triazine] | – | statistically significant reduction in biofilm formation | No growth defect was observed | 1.09 | -8.15 | -15.8 | 29 | 7.62 | 0.31 | only the divalent bis-D-Gal propargyl cluster 16 induces rapid aggregation of lecA | –
OC[C@H]1O[C@@H](n2cc(CSc3nc(SCc4cn([C@@H]5O[C@H](CO)[C@H](O)[C@H](O)[C@H]5O)nn4)nc(SCc4cn([C@@H]5O[C@H](CO)[C@@H](O)[C@H](O)[C@H]5O)nn4)n3)nn2)[C@H](O)[C@@H](O)[C@H]1O [compound 17, 2,4-bis(1-(β-D-galactopyranosyl)triazol-4-ylmethylthio)-6-(1-(β-D-glucopyranosyl)triazol-4-ylmethylthio)-1,3,5-triazine] | – | – | – | 3.4 | -7.48 | -12.2 | 14 | 4.71 | 0.54 | only the divalent bis-D-Gal propargyl cluster 16 induces rapid aggregation of lecA | –
OC[C@H]1O[C@@H](n2cc(CSc3nc(SCc4cn([C@@H]5O[C@H](CO)[C@@H](O)[C@H](O)[C@H]5O)nn4)nc(SCc4cn([C@@H]5O[C@H](CO)[C@@H](O)[C@H](O)[C@H]5O)nn4)n3)nn2)[C@H](O)[C@@H](O)[C@@H]1O [compound 13, 2,4,6-tris(1-(β-D-glucopyranosyl)triazol-4-ylmethylthio)-1,3,5-triazine] | – | – | No growth defect was observed | – | <0 | – | – | – | – | only the divalent bis-D-Gal propargyl cluster 16 induces rapid aggregation of lecA | no affinity for the lectin
C#CCSc1nc(SCc2cn([C@@H]3O[C@H](CO)[C@H](O)[C@H](O)[C@H]3O)nn2)nc(SCc2cn([C@@H]3O[C@H](CO)[C@H](O)[C@H](O)[C@H]3O)nn2)n1 [compound 16, 2,4-bis(1-(β-D-galactopyranosyl)triazol-4-ylmethylthio)-6-(prop-2-ynylthio)-1,3,5-triazine] | – | – | – | 4.4 | -7.29 | -11.4 | 11 | 4.11 | 0.79 | induces rapid aggregation of lecA | –
CO[C@@H]1O[C@H](CO)[C@H](O)[C@H](O)[C@H]1O [β-D-GalOMe, methyl β-D-galactoside] | – | – | – | – | – | – | 1 | – | – | – | –
